{"source": "patent US12661331B2", "about": "(priority 2019, dated 2026)", "test_system": "PUUV", "parameters": "species or system AG129 mice", "conditions": "mouse, in vivo"}
{"smiles": "O=C(O)c1ccc(F)c(F)c1Nc1ccc(I)cc1Cl", "note": "[ATR-002, 2-(2-chloro-4-iodophenylamino)-N-3,4-difluoro benzoic acid]", "values": [{"measurement": "virus in the kidney", "result": "no virus could be detected"}, {"measurement": "virus in the lung", "result": "no virus could be detected"}, {"measurement": "virus titer reduction compared to animals treated with solvent only", "setting": "75 mg/kg/day", "result": "complete virus titer reduction"}]}
